Where two headings read alike, the source gives them in different places.
How the values were obtained:
OXA-23 = OXA-23 (Acinetobacter baumannii, UniProt Q9L4P2); experiment: CHDL enzyme inhibition assay with nitrocefin; type: biochemical; conditions: OXA-23 418 pM, 100 μM nitrocefin, 5 minute pre-incubation; read-out: IC50 against OXA-23
Procedure: (§1) The screened 7 compounds were dissolved in 100% DMSO at 10 mM. More diluted stocks were prepared as necessary. OXA-48 activity was determined by monitoring the change of absorbance at 482 nm using the characteristic molecular extinction coefficient (Δε482=15,900 M^−1 cm^−1) of nitrocefin (Oxoid, Hampshire, UK) by a Shimazu UV-1650PC spectrophotometer. Up to 5% DMSO, no influence on the enzyme activity of OXA-48 was observed. The assays were conducted in 10 mM MES (pH 6.8) containing OXA-48 (103 pM), 50 mM NaHCO3, and 20 μg/mL bovine serum albumin. After 5 min of pre-incubation of the purified OXA-48 and each inhibitor at 30° C., the enzymatic reaction was started by adding nitrocefin (100 μM). Residual velocities were determined after 5 minutes. The first 120 s of each reaction was used to measure initial rates. Data were evaluated using Microsoft Excel. Concentration-dependent inhibition of OXA-48 was measured using different concentrations of seven compounds resulting from two-fold dilution series. Reaction progress at every concentration of seven compounds was measured in triplicates. IC50 values were calculated using 4-parameter log fits using XL Fit curve fitting software (www.idbs.com) for Excel using the following equation:
(§2) [formula] where y is the remaining enzyme activity (in %) and x is the corresponding concentration. The fitted IC50 parameter is defined as the concentration giving a response half way between the fitted top (B) and bottom (A) of the curve.
(§3) To investigate the inhibitory effects of the novel inhibitor (PLPBA) against eight CHDLs belonging to six clinically-important CHDL subgroups(member of OXA-23 subgroup: OXA-23; member of OXA-24/40 subgroup: OXA-24/40; member of OXA-48 subgroup: OXA-48; members of OXA-51 subgroup: OXA-51 and OXA-109; member of OXA-58 subgroup: OXA-97; member of OXA-143 subgroup: OXA-143) and five CHDLs belonging to four emerging CHDL subgroups (member of OXA-211 subgroup: OXA-211; members of OXA-229 subgroup: OXA-229 and OXA-418; member of OXA-210 subgroup: OXA-210; and member of OXA-240 subgroup: OXA-240), the IC50 values for them were determined (Table 3). PLPBA was dissolved in 100% DMSO at 10 mM. More diluted stocks were prepared as necessary. Activities of CHDLs were determined by monitoring the change of absorbance at 482 nm. Up to 5% DMSO, no influence on the enzyme activities of CHDLs was observed. Each enzyme (OXA-23, 418 pM; OXA-24/40, 134 pM; OXA-48, 103 pM; OXA-51, 184 nM; OXA-97, 178 pM; OXA-109, 168 nM; OXA-143, 96 pM; OXA-210, 179 pM; OXA-211, 701 pM; OXA-229, 142 pM; OXA-240, 383 pM; OXA-418, 158 pM) was mixed with 100 μM nitrocefin after a 5 minute pre-incubation with PLPBA. The first 120 s of each reaction was used to measure initial rates. Data were evaluated using Microsoft Excel. Reaction progress at every concentration of PLPBA was measured in triplicates.

OXA-210 = OXA-210 (Pseudomonas aeruginosa, UniProt F6ME16); experiment: CHDL enzyme inhibition assay with nitrocefin; type: biochemical
Procedure: as §1, §2, §3

OXA-211 = OXA-211 (Acinetobacter johnsonii, UniProt G9JKV7); experiment: CHDL enzyme inhibition assay with nitrocefin; type: biochemical; conditions: OXA-211 701 pM, 100 μM nitrocefin, 5 minute pre-incubation; read-out: IC50 against OXA-211
Procedure: as §1, §2, §3

OXA-143 = OXA-143 (Acinetobacter baumannii, UniProt D0UHC8); experiment: CHDL enzyme inhibition assay with nitrocefin; type: biochemical; conditions: OXA-143 96 pM, 100 μM nitrocefin, 5 minute pre-incubation; read-out: IC50 against OXA-143
Procedure: as §1, §2, §3

OXA-24/40 = OXA-24/40 (Acinetobacter baumannii, UniProt Q8RLA6); experiment: CHDL enzyme inhibition assay with nitrocefin; type: biochemical
Procedure: as §1, §2, §3

OXA-229 = OXA-229 (Acinetobacter bereziniae, UniProt I6S7G0); experiment: CHDL enzyme inhibition assay with nitrocefin; type: biochemical; conditions: OXA-229 142 pM, 100 μM nitrocefin, 5 minute pre-incubation; read-out: IC50 against OXA-229
Procedure: as §1, §2, §3

OXA-51 = OXA-51 (Acinetobacter baumannii, UniProt Q5QT35); experiment: CHDL enzyme inhibition assay with nitrocefin; type: biochemical; conditions: OXA-51 184 nM, 100 μM nitrocefin, 5 minute pre-incubation; read-out: IC50 against OXA-51
Procedure: as §1, §2, §3

OXA-97 = OXA-97 (Acinetobacter baumannii, UniProt A5Y470); experiment: CHDL enzyme inhibition assay with nitrocefin; type: biochemical; conditions: OXA-97 178 pM, 100 μM nitrocefin, 5 minute pre-incubation; read-out: IC50 against OXA-97
Procedure: as §1, §2, §3

OXA-109 = OXA-109 (Acinetobacter baumannii, UniProt A8JZR7); experiment: CHDL enzyme inhibition assay with nitrocefin; type: biochemical; conditions: OXA-109 168 nM, 100 μM nitrocefin, 5 minute pre-incubation; read-out: IC50 against OXA-109
Procedure: as §1, §2, §3

OXA-48 = OXA-48 (Klebsiella pneumoniae, UniProt Q6XEC0); experiment: OXA-48 enzyme inhibition assay with nitrocefin; type: biochemical; conditions: OXA-48 103 pM
Procedure: as §1
(§4) [formula] where y is the remaining enzyme activity (in %) and x is the corresponding concentration. […]

OXA-240 = OXA-240 (Pseudomonas aeruginosa, UniProt I6VVS5); experiment: CHDL enzyme inhibition assay with nitrocefin; type: biochemical, P. aeruginosa; conditions: OXA-240 383 pM, 100 μM nitrocefin, 5 minute pre-incubation; read-out: IC50 against OXA-240
Procedure: as §1, §4

Sequence of OXA-48 (Q6XEC0 24-265 limits assumed, looked up): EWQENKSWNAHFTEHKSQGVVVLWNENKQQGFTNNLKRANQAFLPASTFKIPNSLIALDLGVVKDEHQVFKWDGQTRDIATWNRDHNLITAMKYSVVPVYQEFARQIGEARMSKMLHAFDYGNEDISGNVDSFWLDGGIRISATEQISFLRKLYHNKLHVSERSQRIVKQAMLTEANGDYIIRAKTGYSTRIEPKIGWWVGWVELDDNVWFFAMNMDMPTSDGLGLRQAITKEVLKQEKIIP
Sequence of OXA-240 (I6VVS5 21-266 limits assumed): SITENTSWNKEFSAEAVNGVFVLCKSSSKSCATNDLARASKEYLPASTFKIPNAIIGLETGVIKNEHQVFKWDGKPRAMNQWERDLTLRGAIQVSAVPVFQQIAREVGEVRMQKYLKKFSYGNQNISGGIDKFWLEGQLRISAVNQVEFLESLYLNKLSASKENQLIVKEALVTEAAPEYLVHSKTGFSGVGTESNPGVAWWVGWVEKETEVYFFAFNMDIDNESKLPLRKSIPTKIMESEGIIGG
Sequence of OXA-143 (D0UHC8 entry or part of it): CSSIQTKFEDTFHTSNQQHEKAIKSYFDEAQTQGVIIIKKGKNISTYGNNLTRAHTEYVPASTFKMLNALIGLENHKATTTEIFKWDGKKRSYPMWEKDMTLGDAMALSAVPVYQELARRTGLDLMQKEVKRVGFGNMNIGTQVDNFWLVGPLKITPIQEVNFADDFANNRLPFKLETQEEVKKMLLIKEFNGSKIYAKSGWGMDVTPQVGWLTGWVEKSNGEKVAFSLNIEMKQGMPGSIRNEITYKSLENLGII
Sequence of OXA-24/40 (Q8RLA6 entry or part of it): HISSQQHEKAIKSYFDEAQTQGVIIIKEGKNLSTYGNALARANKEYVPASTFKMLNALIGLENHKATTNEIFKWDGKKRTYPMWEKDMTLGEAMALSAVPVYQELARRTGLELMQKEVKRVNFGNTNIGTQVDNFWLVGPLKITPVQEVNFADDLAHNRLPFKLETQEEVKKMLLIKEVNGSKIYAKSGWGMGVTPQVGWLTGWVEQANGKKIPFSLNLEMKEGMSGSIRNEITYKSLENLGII
Sequence of OXA-109 (A8JZR7 entry or part of it): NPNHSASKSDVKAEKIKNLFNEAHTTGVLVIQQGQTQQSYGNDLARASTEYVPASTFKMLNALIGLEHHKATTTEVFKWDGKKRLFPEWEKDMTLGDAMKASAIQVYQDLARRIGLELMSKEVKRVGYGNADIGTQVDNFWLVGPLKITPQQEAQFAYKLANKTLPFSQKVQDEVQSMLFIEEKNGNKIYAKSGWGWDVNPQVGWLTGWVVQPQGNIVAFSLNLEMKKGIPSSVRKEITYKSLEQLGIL
Sequence of OXA-211 (G9JKV7 entry or part of it): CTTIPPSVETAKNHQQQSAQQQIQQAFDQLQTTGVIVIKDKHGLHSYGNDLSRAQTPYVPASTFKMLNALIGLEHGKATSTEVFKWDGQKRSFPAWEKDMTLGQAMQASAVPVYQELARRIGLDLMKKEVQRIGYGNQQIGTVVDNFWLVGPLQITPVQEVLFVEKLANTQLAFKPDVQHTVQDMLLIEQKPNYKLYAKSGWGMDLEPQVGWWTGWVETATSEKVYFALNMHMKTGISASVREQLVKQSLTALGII
Sequence of OXA-210 (F6ME16 entry or part of it): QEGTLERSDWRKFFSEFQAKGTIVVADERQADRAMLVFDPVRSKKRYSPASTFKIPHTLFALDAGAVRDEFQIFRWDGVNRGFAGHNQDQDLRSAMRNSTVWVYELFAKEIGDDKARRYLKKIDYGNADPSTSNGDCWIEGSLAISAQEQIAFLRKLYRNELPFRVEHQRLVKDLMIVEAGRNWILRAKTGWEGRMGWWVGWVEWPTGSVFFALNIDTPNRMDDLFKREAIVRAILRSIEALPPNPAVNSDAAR
Sequence of OXA-23 (Q9L4P2 31-273 limits assumed): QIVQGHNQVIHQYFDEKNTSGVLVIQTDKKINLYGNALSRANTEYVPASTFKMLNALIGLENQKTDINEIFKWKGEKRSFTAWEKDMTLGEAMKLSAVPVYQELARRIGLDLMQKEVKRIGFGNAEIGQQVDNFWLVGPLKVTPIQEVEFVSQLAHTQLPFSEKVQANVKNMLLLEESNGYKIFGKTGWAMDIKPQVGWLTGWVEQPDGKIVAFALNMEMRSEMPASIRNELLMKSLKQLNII
Sequence of OXA-97 (A5Y470 entry or part of it): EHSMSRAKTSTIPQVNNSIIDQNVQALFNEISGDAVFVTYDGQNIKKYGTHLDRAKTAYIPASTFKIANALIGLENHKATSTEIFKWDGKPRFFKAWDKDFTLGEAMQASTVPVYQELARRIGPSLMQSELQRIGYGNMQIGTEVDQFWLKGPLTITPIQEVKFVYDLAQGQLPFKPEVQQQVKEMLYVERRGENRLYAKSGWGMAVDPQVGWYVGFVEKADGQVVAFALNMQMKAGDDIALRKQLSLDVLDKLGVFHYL
Sequence of OXA-229 (I6S7G0 entry or part of it): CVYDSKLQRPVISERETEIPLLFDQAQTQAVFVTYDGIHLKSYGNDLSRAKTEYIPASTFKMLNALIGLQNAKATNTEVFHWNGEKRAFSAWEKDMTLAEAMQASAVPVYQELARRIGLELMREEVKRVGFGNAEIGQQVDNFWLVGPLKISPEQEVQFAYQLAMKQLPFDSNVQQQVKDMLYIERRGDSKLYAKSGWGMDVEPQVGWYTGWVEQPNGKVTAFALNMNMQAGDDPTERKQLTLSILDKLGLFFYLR
Sequence of OXA-51 (Q5QT35 entry or part of it): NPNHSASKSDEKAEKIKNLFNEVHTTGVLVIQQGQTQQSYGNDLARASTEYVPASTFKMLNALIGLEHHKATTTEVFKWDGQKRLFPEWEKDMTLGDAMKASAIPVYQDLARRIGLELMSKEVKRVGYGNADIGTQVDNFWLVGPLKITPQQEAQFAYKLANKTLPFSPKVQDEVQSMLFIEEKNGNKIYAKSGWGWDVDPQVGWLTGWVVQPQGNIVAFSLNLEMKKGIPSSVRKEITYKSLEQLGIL

OB(O)c1cccc(OCCc2ccccc2)c1 [Compound 1, [3-(2-Phenylethoxy)phenyl]boronic Acid]
IC50 (OXA-23): 275.54 ± 0.02 µM | IC50 (OXA-210): 218.79 ± 0.02 µM | IC50 (OXA-211): 238.51 ± 0.01 µM | IC50 (OXA-143): 91.79 ± 0.01 µM | IC50 (OXA-24/40): 384.73 ± 0.02 µM | IC50 (OXA-229): 171.93 ± 0.01 µM | IC50 (OXA-51): 594.73 ± 0.01 µM | IC50 (OXA-97): 189.02 ± 0.01 µM | IC50 (OXA-109): 864.59 ± 0.02 µM | IC50 (OXA-48; nitrocefin 100 μM, 5 min pre-incubation at 30° C., 10 mM MES pH 6.8, read-out: IC50 values on OXA-48 of the screened compounds): 155 µM | IC50 (OXA-48; Table 3, 100 μM nitrocefin, 5 minute pre-incubation, read-out: IC50 against OXA-48): 154.84 ± 0.02 µM | IC50 (OXA-240): 218.59 ± 0.03 µM

Source: patent US11058695B2, “Inhibitor of carbapenem-hydrolyzing class D beta-lactamases” (MYONGJI UNIVERSITY INDUSTRY AND ACADEMIA COOPERATION …, priority 2019, dated 2021)
